Laboratory results published in ChEMBL document CHEMBL4138123, “Design, synthesis and biological evaluation of novel pyrazolochalcones as potential modulators of PI3K/Akt/mTOR pathway and inducers of apoptosis in breast cancer cells” (Eur J Med Chem, 2017).
pIC50: −log10 of the molar value.

Assays:
MOLT-4 = experiment: Cytotoxicity against human MOLT4 cells assessed as cell growth at 0.1 uM after 48 hrs by sulforhodamine B assay relative to control; format: functional; settings: MOLT-4, 48 h, read-out: Activity
UACC-257 [1] = experiment: Cytotoxicity against human UACC257 cells assessed as cell growth at 100 uM after 48 hrs by sulforhodamine B assay relative to control; format: functional; settings: UACC-257, 48 h, read-out: Activity
COLO 205 = experiment: Cytotoxicity against human COLO205 cells assessed as cell growth at 1 uM after 48 hrs by sulforhodamine B assay relative to control; format: functional; settings: COLO 205, 48 h, read-out: Activity
U-251 = experiment: Cytotoxicity against human U251 cells assessed as cell growth at 1 uM after 48 hrs by sulforhodamine B assay relative to control; format: functional; settings: U-251, 48 h, read-out: Activity
BT-549 = experiment: Cytotoxicity against human BT549 cells assessed as cell growth at 1 uM after 48 hrs by sulforhodamine B assay relative to control; format: functional; settings: BT-549, 48 h, read-out: Activity
SK-MEL-5 [2] = experiment: Cytotoxicity against human SK-MEL-5 cells assessed as cell growth at 0.01 uM after 48 hrs by sulforhodamine B assay relative to control; format: functional; settings: SK-MEL-5, 48 h, read-out: Activity
OVCAR-3 = experiment: Cytotoxicity against human OVCAR3 cells assessed as cell growth at 0.1 uM after 48 hrs by sulforhodamine B assay relative to control; format: functional; settings: OVCAR-3, 48 h, read-out: Activity
HCT-116 = experiment: Cytotoxicity against human HCT116 cells assessed as cell growth at 0.1 uM after 48 hrs by sulforhodamine B assay relative to control; format: functional; settings: HCT-116, 48 h, read-out: Activity
NCI-H23 = experiment: Cytotoxicity against human NCI-H23 cells assessed as cell growth at 100 uM after 48 hrs by sulforhodamine B assay relative to control; format: functional; settings: NCI-H23, 48 h, read-out: Activity
SF-539 = experiment: Cytotoxicity against human SF539 cells assessed as cell growth at 100 uM after 48 hrs by sulforhodamine B assay relative to control; format: functional; settings: SF-539, 48 h, read-out: Activity
NCI-H322M = experiment: Cytotoxicity against human NCI-H322M cells assessed as cell growth at 10 uM after 48 hrs by sulforhodamine B assay relative to control; format: functional; settings: read-out: Activity
Malme-3M = experiment: Cytotoxicity against human MALME-3M cells assessed as growth inhibition after 48 hrs by sulforhodamine B assay; format: functional
UACC-257 [3] = experiment: Cytotoxicity against human UACC257 cells assessed as cell growth at 10 uM after 48 hrs by sulforhodamine B assay relative to control; format: functional; settings: UACC-257, 48 h, read-out: Activity
T47D = experiment: Cytotoxicity against human T47D cells assessed as cell growth at 1 uM after 48 hrs by sulforhodamine B assay relative to control; format: functional; settings: read-out: Activity
HOP-62 = experiment: Cytotoxicity against human HOP62 cells assessed as cell growth at 1 uM after 48 hrs by sulforhodamine B assay relative to control; format: functional; settings: HOP-62, 48 h, read-out: Activity
TK-10 = experiment: Cytotoxicity against human TK10 cells assessed as cell growth at 100 uM after 48 hrs by sulforhodamine B assay relative to control; format: functional; settings: TK-10, 48 h, read-out: Activity
ACHN [4] = experiment: Cytotoxicity against human ACHN cells assessed as cell growth at 1 uM after 48 hrs by sulforhodamine B assay relative to control; format: functional; settings: read-out: Activity
HCC 2998 [5] = experiment: Cytotoxicity against human HCC2998 cells assessed as cell growth at 0.01 uM after 48 hrs by sulforhodamine B assay relative to control; format: functional; settings: HCC 2998, 48 h, read-out: Activity
NCI-H522 = experiment: Cytotoxicity against human NCI-H522 cells assessed as growth inhibition after 48 hrs by sulforhodamine B assay; format: functional; settings: NCI-H522, 48 h
MDA-MB-468 = experiment: Cytotoxicity against human MDA-MB-468 cells assessed as growth inhibition after 48 hrs by sulforhodamine B assay; format: functional; settings: MDA-MB-468, 48 h
HCT-15 = experiment: Cytotoxicity against human HCT15 cells assessed as cell growth at 100 uM after 48 hrs by sulforhodamine B assay relative to control; format: functional; settings: HCT-15, 48 h, read-out: Activity
DU-145 = experiment: Cytotoxicity against human DU145 cells assessed as cell growth at 0.01 uM after 48 hrs by sulforhodamine B assay relative to control; format: functional; settings: DU-145, 48 h, read-out: Activity
MCF7 = experiment: Cytotoxicity against human MCF7 cells assessed as cell growth at 1 uM after 48 hrs by sulforhodamine B assay relative to control; format: functional; settings: MCF7, 48 h, read-out: Activity
M14 = experiment: Cytotoxicity against human M14 cells assessed as cell growth at 0.01 uM after 48 hrs by sulforhodamine B assay relative to control; format: functional; settings: M14, 48 h, read-out: Activity
SF-268 = experiment: Cytotoxicity against human SF268 cells assessed as cell growth at 0.1 uM after 48 hrs by sulforhodamine B assay relative to control; format: functional; settings: SF-268, 48 h, read-out: Activity
SK-MEL-5 [6] = experiment: Cytotoxicity against human SK-MEL-5 cells assessed as cell growth at 100 uM after 48 hrs by sulforhodamine B assay relative to control; format: functional; settings: SK-MEL-5, 48 h, read-out: Activity
MDA-MB-231 [7] = experiment: Cytotoxicity against human MDA-MB-231 cells assessed as growth inhibition after 48 hrs by MTT assay; format: functional, cell-based; settings: MDA-MB-231, 48 h
OVCAR-8 = experiment: Cytotoxicity against human OVCAR8 cells assessed as growth inhibition after 48 hrs by sulforhodamine B assay; format: functional; settings: OVCAR-8, 48 h
SN12C = experiment: Cytotoxicity against human SN12C cells assessed as cell growth at 100 uM after 48 hrs by sulforhodamine B assay relative to control; format: functional; settings: read-out: Activity
ACHN [8] = experiment: Cytotoxicity against human ACHN cells assessed as growth inhibition after 48 hrs by sulforhodamine B assay; format: functional
UO-31 = experiment: Cytotoxicity against human UO31 cells assessed as cell growth at 0.01 uM after 48 hrs by sulforhodamine B assay relative to control; format: functional; settings: UO-31, 48 h, read-out: Activity
K562 = experiment: Cytotoxicity against human K562 cells assessed as cell growth at 1 uM after 48 hrs by sulforhodamine B assay relative to control; format: functional; settings: K562, 48 h, read-out: Activity
786-0 = experiment: Cytotoxicity against human 786-0 cells assessed as cell growth at 10 uM after 48 hrs by sulforhodamine B assay relative to control; format: functional; settings: 786-0, 48 h, read-out: Activity
HCC 2998 [9] = experiment: Cytotoxicity against human HCC2998 cells assessed as cell growth at 100 uM after 48 hrs by sulforhodamine B assay relative to control; format: functional; settings: HCC 2998, 48 h, read-out: Activity
MDA-MB-231 [10] = experiment: Cytotoxicity against human MDA-MB-231 cells assessed as cell growth at 1 uM after 48 hrs by sulforhodamine B assay relative to control; format: functional; settings: MDA-MB-231, 48 h, read-out: Activity

COc1ccc(-c2cc(/C=C/C(=O)c3ccc(N)cc3)[nH]n2)cc1
growth at 0.1 µM (MOLT-4): 98% | growth at 100 µM (UACC-257 [1]): -95% | growth at 1 µM (COLO 205): 100% | growth at 1 µM (U-251): 65% | growth at 1 µM (BT-549): 77% | growth at 0.01 µM (SK-MEL-5 [2]): 97% | growth at 0.1 µM (OVCAR-3): 96% | growth at 0.1 µM (HCT-116): 105% | growth at 100 µM (NCI-H23): -62% | growth at 100 µM (SF-539): -94% | growth at 10 µM (NCI-H322M): -2% | GI50 (Malme-3M): 2.18 µM | LC50 (Malme-3M): 28.8 µM | TGI (Malme-3M): 6.22 µM | growth at 10 µM (UACC-257 [3]): -54% | growth at 1 µM (T47D): 60% | growth at 1 µM (HOP-62): 102% | growth at 100 µM (TK-10): -91% | growth at 1 µM (ACHN [4]): 71% | growth at 0.01 µM (HCC 2998 [5]): 96% | GI50 (NCI-H522): 1.21 µM | LC50 (NCI-H522): 7.03 µM | TGI (NCI-H522): 2.91 µM | GI50 (MDA-MB-468): 0.43 µM | LC50 (MDA-MB-468): 7.45 µM | TGI (MDA-MB-468): 2.09 µM | growth at 100 µM (HCT-15): -59% | growth at 0.01 µM (DU-145): 104% | growth at 1 µM (MCF7): 42% | growth at 0.01 µM (M14): 102% | growth at 0.1 µM (SF-268): 93% | growth at 100 µM (SK-MEL-5 [6]): -100% | pIC50 (MDA-MB-231 [7]): 5.77 | GI50 (OVCAR-8): 2.44 µM | LC50 (OVCAR-8): > 100 µM | TGI (OVCAR-8): 15.4 µM | growth at 100 µM (SN12C): -78% | GI50 (ACHN [8]): 2.01 µM | LC50 (ACHN [8]): 49.2 µM | TGI (ACHN [8]): 10.6 µM | growth at 0.01 µM (UO-31): 90% | growth at 1 µM (K562): 58% | growth at 10 µM (786-0): -29% | growth at 100 µM (HCC 2998 [9]): -93% | growth at 1 µM (MDA-MB-231 [10]): 78%

COc1ccc(C(=O)/C=C/c2cc(-c3cc(OC)c(OC)c(OC)c3)n[nH]2)cc1
growth at 0.1 µM (MOLT-4): 103% | growth at 100 µM (UACC-257 [1]): -4% | growth at 1 µM (COLO 205): 94% | growth at 1 µM (U-251): 81% | growth at 1 µM (BT-549): 93% | growth at 0.01 µM (SK-MEL-5 [2]): 100% | growth at 0.1 µM (OVCAR-3): 101% | growth at 0.1 µM (HCT-116): 102% | growth at 100 µM (NCI-H23): -23% | growth at 100 µM (SF-539): -92% | growth at 10 µM (NCI-H322M): -60% | TGI (Malme-3M): 3.85 µM | growth at 10 µM (UACC-257 [3]): -65% | growth at 1 µM (T47D): 78% | growth at 1 µM (HOP-62): 87% | growth at 100 µM (TK-10): -20% | growth at 1 µM (ACHN [4]): 105% | growth at 0.01 µM (HCC 2998 [5]): 101% | LC50 (NCI-H522): 6.97 µM | TGI (NCI-H522): 3.2 µM | GI50 (MDA-MB-468): 1.29 µM | LC50 (MDA-MB-468): 5.45 µM | TGI (MDA-MB-468): 2.65 µM | growth at 100 µM (HCT-15): -33% | growth at 0.01 µM (DU-145): 102% | growth at 1 µM (MCF7): 57% | growth at 0.01 µM (M14): 100% | growth at 0.1 µM (SF-268): 91% | growth at 100 µM (SK-MEL-5 [6]): -93% | pIC50 (MDA-MB-231 [7]): 6.02 | LC50 (OVCAR-8): > 100 µM | TGI (OVCAR-8): 8.26 µM | growth at 100 µM (SN12C): 7% | LC50 (ACHN [8]): 6.71 µM | TGI (ACHN [8]): 3.63 µM | growth at 0.01 µM (UO-31): 87% | growth at 1 µM (K562): 89% | growth at 10 µM (786-0): -59% | growth at 100 µM (HCC 2998 [9]): -82% | growth at 1 µM (MDA-MB-231 [10]): 81%
